Measurements: DBAASP
In brackets after ≈: the same amount, converted by molar mass.

What was measured:
Experiment in all cases: ≥ marks a high value that may be exact or a test limit, other limits are often not marked, values filed in µg/mL are converted to µM
[1] = test system: Escherichia coli L361
[2] = test system: Listeria monocytogenes NCTC 7973
[3] = test system: Pseudomonas fluorescens
[4] = test system: Salmonella enterica subsp. enterica serovar Salford IMVS 1710
[5] = test system: Staphylococcus aureus NCTC 6571
[6] = test system: Bacillus cereus ACM 446
[7] = test system: Escherichia coli O9
[8] = test system: Candida albicans CAN105
[9] = test system: Pseudomonas aeruginosa H187
[10] = test system: Staphylococcus aureus K147
[11] = test system: Escherichia coli UB1005
[12] = test system: Staphylococcus epidermidis
[13] = test system: Staphylococcus aureus SAP 0017
[14] = test system: Enterococcus faecalis
[15] = test system: Pseudomonas aeruginosa
[16] = test system: Cryptococcus neoformans
[17] = test system: Escherichia coli
[18] = test system: Bacillus subtilis
[19] = test system: Shigella flexneri
[20] = test system: Aeromonas hydrophila
[21] = test system: Vibrio alginolyticus
[22] = test system: Candida albicans
[23] = test system: Vibrio parahaemolyticus
[24] = test system: Bacillus cereus
[25] = test system: Staphylococcus aureus
[26] = test system: Staphylococcus aureus ATCC 29213
[27] = test system: Enterococcus faecalis 1F-1
[28] = test system: Pseudomonas aeruginosa PAO1
[29] = test system: Bacillus subtilis ATCC 6051
[30] = test system: Staphylococcus aureus MR
[31] = test system: Enterococcus faecium 5F-10
[32] = test system: Enterococcus faecalis A4
[33] = test system: Escherichia coli ATCC 25922
[34] = test system: Enterococcus faecium 4W-9
[35] = test system: Bacillus licheniformis ATCC 14580
[36] = test system: Salmonella enterica ATCC H9812
[37] = test system: Bacillus cereus ATCC 14579
[38] = test system: Proteus mirabilis ATCC 35659
[39] = test system: Staphylococcus aureus 215
[40] = test system: Bacillus amyloliquefaciens ATCC 23842
[41] = test system: Pseudomonas aeruginosa ATCC 27853
[42] = test system: Klebsiella pneumoniae
[43] = test system: Klebsiella pneumoniae NDM-1
[44] = test system: Enterobacter cloacae
[45] = test system: Klebsiella pneumoniae ATCC 700603
[46] = test system: Escherichia coli UTI89
[47] = test system: Vibrio cholerae
[48] = test system: Escherichia coli ATCC 35218
[49] = test system: Staphylococcus aureus ATCC 25923
[50] = test system: Bacillus subtilis ATCC 6633
[51] = test system: Salmonella enterica subsp. enterica serovar Enteritidis BNCC 103134

For `CC[C@H](C)[C@H](NC(=O)[C@H](CO)NC(=O)[C@@H]1CCCN1C(=O)[C@H](C)NC(=O)CNC(=O)[C@H](CC(C)C)NC(=O)[C@H](CCCCN)NC(=O)[C@@H](N)CCCCN)C(=O)N[C@H](C(=O)N[C@@H](CS)C(=O)N[C@H](C(=O)N[C@@H](CCCN=C(N)N)C(=O)N[C@@H](CCCN=C(N)N)C(=O)N[C@@H](C)C(=O)N[C@@H](Cc1ccccc1)C(=O)N[C@@H](C)C(=O)O)C(C)C)[C@@H](C)O` [KKLGAPSITCVRRAFA], the MIC [1] was at least 50 µM, the MIC [2] was at least 40 µM and the MIC [3] was at least 100 µM. It also gave an MIC [4] of at least 100 µM, an MIC [5] of at least 100 µM and an MIC [6] of at least 100 µM. It also gave an MIC [7] of at least 60 µM.
Work on `CC[C@H](C)[C@H](NC(=O)CNC(=O)[C@@H](NC(=O)[C@H](CCCCN)NC(=O)[C@H](CCCCN)NC(=O)[C@H](Cc1ccccc1)NC(=O)[C@H](CC(C)C)NC(=O)[C@H](CCCCN)NC(=O)[C@H](Cc1c[nH]c2ccccc12)NC(=O)[C@@H](N)CCCCN)[C@@H](C)CC)C(=O)NCC(=O)N[C@@H](C)C(=O)N[C@H](C(=O)N[C@@H](CC(C)C)C(=O)N[C@H](C(=O)N[C@H](C(=O)NCC(=O)N[C@@H](CC(C)C)C(=O)N1CCC[C@H]1C(=O)N[C@@H](C)C(=O)N[C@@H](CC(C)C)C(=O)N[C@H](C(=O)N[C@@H](CO)C(=O)O)[C@@H](C)CC)[C@@H](C)O)[C@@H](C)O)C(C)C` [KWKLFKKIGIGAVLTTGLPALIS] yielded an MIC [8] of 26.1 µM (≈ 64 µg/mL), an MIC [9] of 13 µM (≈ 32 µg/mL) and an MIC [10] of 26.1 µM (≈ 64 µg/mL). For the same compound, the MIC [11] was 5.3 µM (≈ 13 µg/mL), the MIC [12] was 17.5 µM (≈ 43 µg/mL) and the MIC [13] was 26.1 µM (≈ 64 µg/mL). The MIC [14] was 26.1 µM (≈ 64 µg/mL).
In the case of `CSCC[C@H](NC(=O)[C@H](CCCCN)NC(=O)[C@H](CCC(N)=O)NC(=O)[C@H](CCSC)NC(=O)[C@H](CC(N)=O)NC(=O)[C@H](CCCN=C(N)N)NC(=O)[C@H](CC(N)=O)NC(=O)[C@H](Cc1ccc(O)cc1)NC(=O)[C@H](CCCCN)NC(=O)[C@H](Cc1ccc(O)cc1)NC(=O)[C@H](CC(=O)O)NC(=O)[C@H](CCCCN)NC(=O)[C@H](Cc1c[nH]c2ccccc12)NC(=O)[C@H](C)NC(=O)[C@H](CCC(N)=O)NC(=O)[C@H](CCCN=C(N)N)NC(=O)[C@H](C)NC(=O)CNC(=O)[C@@H](N)CCCCN)C(=O)N[C@@H](CC(N)=O)C(=O)N[C@@H](CCC(N)=O)C(=O)NCC(=O)N[C@@H](Cc1ccc(O)cc1)C(=O)NCC(=O)N[C@@H](CCC(N)=O)C(=O)N[C@@H](CCC(N)=O)C(=O)NCC(=O)NCC(=O)O` [KGARQAWKDYKYNRNMQKMNQGYGQQGG], the MIC [15] is reported as over 50 µM, the MIC [16] is reported as 17.7 µM (≈ 58.5 µg/mL) and the MIC [17] is reported as over 50 µM. The MIC [3] was at least 50 µM, the MIC [18] was at least 35.4 µM and the MIC [19] was at least 50 µM. The MIC [12] was at least 50 µM, the MIC [20] was at least 50 µM and the MIC [21] was at least 50 µM. For the same compound, the MIC [22] was over 50 µM, the MIC [23] was at least 50 µM and the MIC [24] was at least 50 µM. It also gave an MIC [25] of over 50 µM.
`CC(C)C[C@H](NC(=O)[C@H](CC(C)C)NC(=O)[C@@H](N)CCC(=O)O)C(=O)N[C@@H](CO)C(=O)N[C@@H](C)C(=O)N[C@H](C(=O)N[C@@H](CC(=O)O)C(=O)O)C(C)C` [ELLSAVD] showed an MIC [26] of over 172 µM, an MIC [27] of at least 172 µM and an MIC [28] of over 172 µM. It also gave an MIC [29] of at least 172 µM, an MIC [30] of at least 172 µM and an MIC [31] of at least 172 µM. It also gave an MIC [32] of at least 172 µM, an MIC [33] of 85.8 µM (≈ 64 µg/mL) and an MIC [34] of at least 172 µM. It also gave an MIC [35] of at least 172 µM, an MIC [36] of at least 172 µM and an MIC [37] of at least 172 µM. For the same compound, the MIC [38] was at least 172 µM, the MIC [39] was at least 172 µM and the MIC [40] was at least 172 µM.
`CC[C@H](C)[C@H](NC(=O)[C@@H](NC(=O)[C@@H]1CCCN1C(=O)[C@H](CO)NC(=O)[C@H](CC(C)C)NC(=O)[C@H](CCCCN)NC(=O)[C@H](CCCCN)NC(=O)[C@H](Cc1ccccc1)NC(=O)[C@H](CC(C)C)NC(=O)[C@H](CCCCN)NC(=O)[C@H](CCCCN)NC(=O)[C@H](CC(C)C)NC(=O)[C@H](CCCCN)NC(=O)[C@H](CCCCN)NC(=O)[C@H](CCCN=C(N)N)NC(=O)[C@@H](N)Cc1ccccc1)C(C)C)C(=O)N1CCC[C@H]1C(=O)N[C@@H](CC(C)C)C(=O)N[C@@H](CC(C)C)C(=O)N[C@@H](CCCCN)C(=O)N[C@@H](CC(C)C)C(=O)NCC(N)=O` [FRKKLKKLFKKLSPVIPLLKLG] gave an MIC [41] of 2 µM (≈ 5.19 µg/mL), an MIC [42] of 2 µM (≈ 5.19 µg/mL) and an MIC [43] of 2.83 µM (≈ 7.34 µg/mL). The MIC [44] was 4 µM (≈ 10.4 µg/mL), the MIC [45] was 2 µM (≈ 5.19 µg/mL) and the MIC [28] was 2 µM (≈ 5.19 µg/mL). For the same compound, the MIC [46] was 2 µM (≈ 5.19 µg/mL), the MIC [33] was 2 µM (≈ 5.19 µg/mL) and the MIC [47] was 4 µM (≈ 10.4 µg/mL). The MIC [48] was 2 µM (≈ 5.19 µg/mL).
For `NC(=O)C[C@H](NC(=O)[C@H](Cc1cnc[nH]1)NC(=O)[C@H](CC(N)=O)NC(=O)[C@@H](N)Cc1ccc(O)cc1)C(=O)N[C@@H](Cc1ccccc1)C(=O)O` [YNHNF], the MIC [49] was 300 µM (≈ 208 µg/mL), the MIC [50] was at least 300 µM and the MIC [33] was 150 µM (≈ 104 µg/mL). It also gave an MIC [51] of at least 300 µM.
